Laboratory results as given in patent US20230227466A1, “SUBSTITUTED THIENOPYRIMIDINES THAT INTERACT WITH THE RAS SUPERFAMILY FOR THE TREATMENT OF CANCERS, INFLAMMATORY DISEASES, RASOPATHIES, AND FIBROTIC DISEASE” (SHY Therapeutics, LLC, priority 2020, published 2023).
Like-named read-outs stand apart in the source and are kept apart here.

Assays:
[1] = test system: MIA-PaCa-2 pancreatic cancer cell line (KRAS G12C); test: Cell proliferation assay (CellTiter 96 Aqueous One); assay type: cell-based; settings: Homo sapiens; for inhibition at 10 µM: MIA PaCa-2, read-out: % inh cell proliferation (10 μM) in MIA PaCa-2
Method in brief: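 Percent inhibition of proliferation is derived from MTS absorbance data. Cells seeded at 2000–5000 per well were grown overnight before treatment. Compounds, at 10 μM final or in dilution series, stayed on cells for 2–4 days in medium containing 10% FBS and 0.3% DMSO.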

KRas wild type = KRas wild type (Homo sapiens, UniProt P01116); test: Ras GTP binding domain inhibition assay (labeled-GTP competition, cell-free); parameters: made in house
Method in brief: (§1)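 Immobilized His-tagged protein (Ni plate, 10-30 μg/mL, overnight 4° C); compound 20 μM or dilution series, 1% DMSO, 3 h RT, ±Sos 556-1049 last hour; Cy3/Cy5-GTP 100 nM, 45 min RT; 3× wash; bound fluorescence read.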

Rho-A = Rho-A (Homo sapiens, UniProt P61586); test: as above; parameters: made in house
Method in brief: as §1

Rac-1 = Rac-1 (Homo sapiens, UniProt P63000); test: as above; parameters: made in house
Method in brief: as §1

KRas Q61H mutant = target: T1, KRas Q61H mutant (Homo sapiens, UniProt P01116, Q61H); test: as above
T1 construct: made in house
Method in brief: as §1

KRas G12C mutant = target: T2, KRas G12C mutant (Homo sapiens, UniProt P01116, G12C); test: as above
T2 construct: made in house
Method in brief: as §1

KRas G12D mutant = target: T3, KRas G12D mutant (Homo sapiens, UniProt P01116, G12D); test: as above
T3 construct: made in house
Method in brief: as §1

[2] = with SOS, read-out: KRas wild type + SOS: % inh.
[3] = without SOS, read-out: KRas wild type: % inh.
[4] = without SOS, read-out: Rho-A: % inh.
[5] = without SOS, read-out: Rac-1: % inh.
[6] = with SOS, read-out: KRas Q61H mutant + SOS: % inh.
[7] = without SOS, read-out: KRas Q61H mutant: % inh.
[8] = with SOS, read-out: KRas G12C mutant + SOS: % inh.
[9] = without SOS, read-out: KRas G12C mutant: % inh.
[10] = with SOS, read-out: KRas G12D mutant + SOS: % inh.
[11] = without SOS, read-out: KRas G12D mutant: % inh.
[12] = with SOS, read-out: Rho-A + SOS: % inh.
[13] = with SOS, read-out: Rac-1 + SOS: % inh.

Structure (SMILES)	IC50 ([1]; MIA PaCa-2, MIA PaCa-2)	inhibition at 10 µM [1]	inhibition at 20 µM (KRas wild type; [2])	inhibition at 20 µM (KRas wild type; [3])	inhibition at 20 µM (Rho-A; [4])	inhibition at 20 µM (Rac-1; [5])	inhibition at 20 µM (KRas Q61H mutant; [6])	inhibition at 20 µM (KRas Q61H mutant; [7])	inhibition at 20 µM (KRas G12C mutant; [8])	inhibition at 20 µM (KRas G12C mutant; [9])	inhibition at 20 µM (KRas G12D mutant; [10])	inhibition at 20 µM (KRas G12D mutant; [11])	inhibition at 20 µM (Rho-A; [12])	inhibition at 20 µM (Rac-1; [13])	IC50 (KRas Q61H mutant; with SOS)	IC50 ([1]; MIA PaCa-2, MIA-PaCa-2, 2-4 days, 10% FBS)
CCOCCn1ccnc1-c1nc(O)c2scc(-c3ccccn3)c2n1 [Compound 80, 2-(1-(2-Ethoxyethyl)-1H-imidazol-2-yl)-7-(pyridin-2-yl)thieno[3,2-d]pyrimidin-4-ol]	1 to 4.99 µM	76 to 100%	51 to 75%	76 to 100%	51 to 75%	76 to 100%	51 to 75%	76 to 100%	51 to 75%	51 to 75%	76 to 100%	76 to 100%				
Oc1nc(-c2nccn2CCOCC(F)(F)F)nc2c(-c3ccccn3)csc12 [Compound 81, 7-(Pyridin-2-yl)-2-(1-(2-(2,2,2-trifluoroethoxy)ethyl)-1H-imidazol-2-yl)thieno[3,2-d]pyrimidin-4-ol]	1 to 4.99 µM	76 to 100%	76 to 100%	76 to 100%	76 to 100%	76 to 100%	51 to 75%	51 to 75%	51 to 75%	51 to 75%	76 to 100%	51 to 75%				
CC(C)OCCn1ccnc1-c1nc(O)c2scc(-c3ccccn3)c2n1 [Compound 82, 2-(1-(2-Isopropoxyethyl)-1H-imidazol-2-yl)-7-(pyridin-2-yl)thieno[3,2-d]pyrimidin-4-ol]	1 to 4.99 µM	76 to 100%	51 to 75%	51 to 75%	51 to 75%	76 to 100%	51 to 75%	51 to 75%	51 to 75%	51 to 75%	51 to 75%	51 to 75%				
Oc1nc(-c2nccn2CCOCc2ccccc2)nc2c(-c3ccccn3)csc12 [Compound 83, 2-(1-(2-(Benzyloxy)ethyl)-1H-imidazol-2-yl)-7-(pyridin-2-yl)thieno[3,2-d]pyrimidin-4-ol]	5 to 10 µM	76 to 100%	26 to 50%	51 to 75%	51 to 75%	76 to 100%	51 to 75%	26 to 50%	51 to 75%	1 to 25%	51 to 75%	51 to 75%				
COc1cccn2c(-c3nc(O)c4scc(-c5ccccn5)c4n3)ncc12 [Compound 84, 2-(8-Methoxyimidazo[1,5-a]pyridin-3-yl)-7-(pyridin-2-yl)thieno[3,2-d]pyrimidin-4-ol]	5 to 10 µM	51 to 75%	1 to 25%	26 to 50%	51 to 75%	26 to 50%	26 to 50%	26 to 50%	1 to 25%	26 to 50%	26 to 50%	26 to 50%				
CO[C@H]1C[C@@H](Nc2nc(-c3nccn3C)nc3sc(-c4ccn(C(C)C)n4)c(C)c23)C1 [Compound 96, 6-(1-isopropyl-1H-pyrazol-3-yl)-N-((1s,3s)-3-methoxycyclobutyl)-5-methyl-2-(1-methyl-1H-imidazol-2-yl)thieno[2,3-d]pyrimidin-4-amine]	> 10 µM	1 to 25%	1 to 25%	0%	0%	1 to 25%	0%	0%	0%	0%	1 to 25%	0%	0%	1 to 25%	> 10 µM	
CO[C@@H]1CC[C@H](Nc2nc(-c3nccn3C)nc3sc(-c4ccn(C(C)C)n4)c(-c4ccccc4)c23)C1 [Example 4, 6-(1-isopropyl-1H-pyrazol-3-yl)-N-((1S,3R)-3-methoxycyclopentyl)-2-(1-methyl-1H-imidazol-2-yl)-5-phenylthieno[2,3-d]pyrimidin-4-amine]	< 1 µM	76 to 100%	76 to 100%	51 to 75%	26 to 50%	1 to 25%	76 to 100%	51 to 75%	76 to 100%	51 to 75%	51 to 75%	51 to 75%	26 to 50%	26 to 50%	1 to 4.99 µM	< 0.4 µM
